According to ChEMBL document CHEMBL5380795, “Design, Synthesis, and Bioactivity Investigation of Cyclic Lipopeptide Antibiotics Containing Eight to Nine Amino Acids” (J Med Chem, 2023):
pKd: −log10 of the molar value. ≈ marks a conversion by molar mass, not a printed value. Calls of active or inactive are those of the source. The calls are words filed in the database; no cut-off is given here.

How the values were obtained:
[1] = system: Escherichia coli; experiment: Antibacterial activity against Escherichia coli ATCC BAA-2523 infected in ICR mouse assessed as mouse survival at 2 mg/kg, iv administered into tail vein and measured daily for 7 days relative to control; type: functional; settings: ATCC BAA-2523, 168 h, time 7 day
[2] = system: Escherichia coli; experiment: Antibacterial activity against Escherichia coli ATCC 25922 assessed as inhibition of bacterial growth incubated for 18 to 24 hrs by broth microdilution method; type: functional; settings: time 18-24 hrs
[3] = system: Klebsiella pneumoniae; experiment: Antibacterial activity against KPC producing Klebsiella pneumoniae ATCC BAA-1705 assessed as inhibition of bacterial growth incubated for 18 to 24 hrs by broth microdilution method; type: functional; settings: time 18-24 hrs
[4] = system: Lipopolysaccharide (LPS); experiment: Binding affinity to LIP-1 sensor chip immobilized Escherichia coli LPS assessed as increase in resonance units measured for 600 secs by SPR analysis; settings: dose 0.125-4 µM, time 600.0 sec
[5] = system: Escherichia coli; experiment: Bactericidal activity against Escherichia coli ATCC BAA-2523 assessed as reduction in bacterial count at 0.5 to 2 times MIC measured after 2 to 24 hrs by time-kill assay; type: functional, organism-based; settings: time 2-24 hrs
[6] = system: Acinetobacter baumannii; experiment: Antibacterial activity against carbapenem resistant Acinetobacter baumannii clinical isolate 19-8 assessed as inhibition of bacterial growth incubated for 18 to 24 hrs by broth microdilution method; type: functional; settings: time 18-24 hrs
[7] = system: Pseudomonas aeruginosa; experiment: Antibacterial activity against Pseudomonas aeruginosa clinical isolate 19-1 assessed as inhibition of bacterial growth incubated for 18 to 24 hrs by broth microdilution method; type: functional; settings: time 18-24 hrs
[8] = system: Escherichia coli; experiment: Antibacterial activity against Escherichia coli clinical isolate 19-2 assessed as inhibition of bacterial growth incubated for 18 to 24 hrs by broth microdilution method; type: functional; settings: time 18-24 hrs
[9] = system: Pseudomonas aeruginosa; experiment: Antibacterial activity against carbapenem resistant Pseudomonas aeruginosa clinical isolate 17-1 assessed as inhibition of bacterial growth incubated for 18 to 24 hrs by broth microdilution method; type: functional; settings: time 18-24 hrs
[10] = system: Staphylococcus aureus; experiment: Antibacterial activity against Staphylococcus aureus ATCC 29213 assessed as inhibition of bacterial growth incubated for 18 to 24 hrs by broth microdilution method; type: functional; settings: time 18-24 hrs
[11] = Plasma protein binding in human at 2 uM incubated for 6 hrs by equilibrium dialysis based LC-MS/MS analysis; type: ADME, cell-free; settings: read-out: PPB (converted)
[12] = system: Acinetobacter baumannii; experiment: Antibacterial activity against oxacillinase-27 producing Acinetobacter baumannii NCTC 13304 assessed as inhibition of bacterial growth incubated for 18 to 24 hrs by broth microdilution method; type: functional; settings: time 18-24 hrs
[13] = Acute toxicity in ICR mouse assessed as adverse effects at 8.19 mg/kg, iv administered into tail vein and measured twice daily over 1 week; type: organism-based; settings: in vivo, 168 h, time 1 weeks
[14] = system: Escherichia coli; experiment: Potentiation of rifampicin induced antibacterial activity in Escherichia coli ATCC 25922 assessed as rifampicin MIC at 4 ug/ml incubated for 18 to 24 hrs by broth microdilution method (reference value: 2 ug/ml); type: functional; settings: dose 4 µg/ml, time 18-24 hrs
[15] = system: Staphylococcus epidermidis; experiment: Antibacterial activity against methicillin resistant Staphylococcus epidermidis clinical isolate 19-6 assessed as inhibition of bacterial growth incubated for 18 to 24 hrs by broth microdilution method; type: functional; settings: time 18-24 hrs
[16] = system: Staphylococcus epidermidis; experiment: Antibacterial activity against methicillin resistant Staphylococcus epidermidis clinical isolate 19-5 assessed as inhibition of bacterial growth incubated for 18 to 24 hrs by broth microdilution method; type: functional; settings: time 18-24 hrs
[17] = system: Staphylococcus aureus; experiment: Antibacterial activity against methicillin resistant Staphylococcus aureus ATCC 33591 assessed as inhibition of bacterial growth incubated for 18 to 24 hrs by broth microdilution method; type: functional; settings: time 18-24 hrs
[18] = system: Lipopolysaccharide (LPS); experiment: Binding affinity to LIP-1 sensor chip immobilized Escherichia coli LPS assessed as dissociation constant measured for 600 secs by SPR analysis
[19] = system: Cell membrane; experiment: Induction of outer membrane permeabilization in Escherichia coli ATCC 25922 assessed as increase in fluorescence at 1 to 16 ug/ml measured after 3 mins by NPN-dye based assay; type: subcellular; settings: dose 1-16 µg/ml
[20] = system: Escherichia coli; experiment: Potentiation of rifampicin induced antibacterial activity in Escherichia coli ATCC 25922 assessed as rifampicin MIC at 2 ug/ml incubated for 18 to 24 hrs by broth microdilution method (reference value: 2 ug/ml); type: functional; settings: dose 2 µg/ml, time 18-24 hrs
[21] = system: Escherichia coli; experiment: Potentiation of rifampicin induced antibacterial activity in Escherichia coli ATCC 25922 assessed as rifampicin MIC at 0.5 ug/ml incubated for 18 to 24 hrs by broth microdilution method (reference value: 2 ug/ml); type: functional; settings: dose 0.5 µg/ml, time 18-24 hrs
[22] = Selectivity index, ratio of IC50 for cytotoxicity against human HK-2 cells to MIC for antibacterial activity against Escherichia coli ATCC BAA-2523; type: toxicity, cell-based
[23] = system: Escherichia coli; experiment: Antibacterial activity against Escherichia coli ATCC BAA-2523 infected in ICR mouse assessed as mouse survival at 4 to 8 mg/kg, iv administered into tail vein and measured daily for 7 days; type: functional, organism-based; settings: dose 4-8 mg/kg, time 7.0 day
[24] = system: Escherichia coli; experiment: Potentiation of rifampicin induced antibacterial activity in Escherichia coli ATCC 25922 assessed as rifampicin MIC at 0.125 ug/ml incubated for 18 to 24 hrs by broth microdilution method (reference value: 2 ug/ml); type: functional; settings: dose 0.125 µg/ml, time 18-24 hrs
[25] = system: Escherichia coli; experiment: Potentiation of rifampicin induced antibacterial activity in Escherichia coli ATCC 25922 assessed as rifampicin MIC at 0.25 ug/ml incubated for 18 to 24 hrs by broth microdilution method (reference value: 2 ug/ml); type: functional; settings: dose 0.25 µg/ml, time 18-24 hrs
[26] = system: Escherichia coli; experiment: Bactericidal activity against Escherichia coli ATCC BAA-2523 assessed as bacterial count at 8 times MIC measured after 24 hrs by time-kill assay; type: functional, organism-based
[27] = system: Escherichia coli; experiment: Potentiation of rifampicin induced antibacterial activity in Escherichia coli ATCC 25922 assessed as rifampicin MIC at 0.03 ug/ml incubated for 18 to 24 hrs by broth microdilution method (reference value: 2 ug/ml); type: functional; settings: dose 0.03 µg/ml, time 18-24 hrs
[28] = AUC (0 to infinity) in overnight fasted Sprague-Dawley rat at 4 mg/kg, ip measured for 24 hrs by LC-MS/MS analysis; type: ADME, organism-based; set-up: dose 4 mg/kg, time 24 hrs, route ip; settings: in vivo
[29] = system: Escherichia coli; experiment: Antibacterial activity against KPC producing Escherichia coli ATCC BAA-2340 assessed as inhibition of bacterial growth incubated for 18 to 24 hrs by broth microdilution method; type: functional; settings: time 18-24 hrs
[30] = system: Escherichia coli; experiment: Potentiation of rifampicin induced antibacterial activity in Escherichia coli ATCC 25922 assessed as rifampicin MIC at 0.004 ug/ml incubated for 18 to 24 hrs by broth microdilution method (reference value: 2 ug/ml); type: functional; settings: dose 0.004 µg/ml, time 18-24 hrs
[31] = Half life in overnight fasted Sprague-Dawley rat at 4 mg/kg, ip measured for 24 hrs by LC-MS/MS analysis; type: ADME, organism-based; settings: in vivo
[32] = system: Escherichia coli; experiment: Potentiation of rifampicin induced antibacterial activity in Escherichia coli ATCC 25922 assessed as rifampicin MIC at 0.008 ug/ml incubated for 18 to 24 hrs by broth microdilution method (reference value: 2 ug/ml); type: functional; settings: dose 0.008 µg/ml, time 18-24 hrs

Work on `CCCCCCC[C@@H](O)CC(=O)N[C@H](CCN)C(=O)N[C@H]1CCNC(=O)[C@H]([C@@H](C)O)NC(=O)[C@H](CCN)NC(=O)[C@H](CCN)NC(=O)[C@H]([C@@H](C)O)NC(=O)[C@@H](Cc2ccccc2)NC(=O)[C@H](CCN)NC1=O` yielded a survival at 2 mg/kg [1] of 62.5%, an MIC [2] of 4 µg/mL (≈ 3.92 µM) and an MIC [3] of 1 µg/mL (≈ 0.98 µM). The Activity [4] was “Dose-Dependent Effect”, the Activity [5] was “inactive” and the MIC [6] was 32 µg/mL (≈ 31.4 µM). The MIC [7] was 0.5 µg/mL (≈ 0.49 µM), the MIC [8] was 1 µg/mL (≈ 0.98 µM) and the MIC [9] was 0.5 µg/mL (≈ 0.49 µM). The MIC [10] was > 64 µg/mL, the fraction unbound at 6 h, 2 µM [11] was 0.147 and the MIC [12] was 8 µg/mL (≈ 7.84 µM). The Activity [13] was “Non-Toxic”, the MIC [14] was ≤ 0.06 µg/mL and the MIC [15] was > 64 µg/mL. For the same compound, the MIC [16] was 64 µg/mL (≈ 62.7 µM), the MIC [17] was > 64 µg/mL and the pKd [18] was 6.32. For the same compound, the Activity [19] was “Active”, the MIC [20] was ≤ 0.06 µg/mL and the MIC [21] was ≤ 0.06 µg/mL. The selectivity ratio [22] was 828, the Activity [23] was “Active” and the MIC [24] was ≤ 0.06 µg/mL. The MIC [25] was ≤ 0.06 µg/mL, the Activity [26] was “Below limit of detection” and the MIC [27] was ≤ 0.06 µg/mL. The AUC(0-inf) [28] was 17600 ng·h/mL, the MIC [29] was 1 µg/mL (≈ 0.98 µM) and the MIC [30] was 0.5 µg/mL. It also gave a half-life [31] of 3.7 h and an MIC [32] of 0.5 µg/mL.
